{"source": "patent US20040175762A1", "about": "“Screening system based on expression of abcg2 half transporter protein” (priority 2001, published 2004)", "key": {"ABCG2 [1]": {"molecular_target": "T1, ABCG2 (Homo sapiens, UniProt Q9UNQ0, R482G)", "T1 sequence (Q9UNQ0 1-655 R482G)": "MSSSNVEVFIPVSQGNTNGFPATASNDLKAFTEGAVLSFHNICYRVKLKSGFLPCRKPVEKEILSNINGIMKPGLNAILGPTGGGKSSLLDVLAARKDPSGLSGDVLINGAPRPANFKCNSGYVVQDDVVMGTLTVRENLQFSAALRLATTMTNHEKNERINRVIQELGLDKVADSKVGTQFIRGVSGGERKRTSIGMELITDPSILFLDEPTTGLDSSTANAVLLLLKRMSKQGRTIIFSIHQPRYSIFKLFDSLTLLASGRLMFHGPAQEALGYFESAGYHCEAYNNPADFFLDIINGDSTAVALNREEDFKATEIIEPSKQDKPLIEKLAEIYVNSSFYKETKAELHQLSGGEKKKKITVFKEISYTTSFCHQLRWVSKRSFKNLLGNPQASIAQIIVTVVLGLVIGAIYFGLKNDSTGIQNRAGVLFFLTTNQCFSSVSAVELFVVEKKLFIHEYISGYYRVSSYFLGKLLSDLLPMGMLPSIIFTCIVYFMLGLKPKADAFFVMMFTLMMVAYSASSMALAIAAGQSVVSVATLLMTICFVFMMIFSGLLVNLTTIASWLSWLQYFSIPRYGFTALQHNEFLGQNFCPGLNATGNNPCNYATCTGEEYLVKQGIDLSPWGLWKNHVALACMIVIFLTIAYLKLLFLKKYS", "assay": "Vanadate sensitive ATPase activity in isolated membranes of ABCG2-expressing Sf9 cells", "description": "FIG. 2: Comparison of the effects of various compounds on the vanadate sensitive ATPase activity in isolated Sf9 membranes of ABCG2 (FIG. 2a) or MDR1 (FIG. 2b) expressing Sf9 cells. […] Data points indicate the mean±S.D. values of at least four measurements, performed in two or three different membrane preparations.\nIndividual clones expressing high levels of the human ABCG2 were obtained by end-point dilution and subsequent amplification. The clone producing the highest yield of the ABCG2 protein was selected by immunoblotting (see below).\nThe reaction mixture contained 40 mM MOPS-Tris (pH 7.0), 50 MM KCl, 2 mM dithiothreitol, 500 μM EGTA-Tris, 5 mM Na-azide, 1 mM oubain and 5-20 μg membrane protein. […] The vanadate sensitive faction was determined in the presence of 1 mM Na-orthovanadate."}, "human MDR1 protein": {"molecular_target": "human MDR1 protein (Homo sapiens, UniProt P08183)", "sequence (P08183 whole entry)": "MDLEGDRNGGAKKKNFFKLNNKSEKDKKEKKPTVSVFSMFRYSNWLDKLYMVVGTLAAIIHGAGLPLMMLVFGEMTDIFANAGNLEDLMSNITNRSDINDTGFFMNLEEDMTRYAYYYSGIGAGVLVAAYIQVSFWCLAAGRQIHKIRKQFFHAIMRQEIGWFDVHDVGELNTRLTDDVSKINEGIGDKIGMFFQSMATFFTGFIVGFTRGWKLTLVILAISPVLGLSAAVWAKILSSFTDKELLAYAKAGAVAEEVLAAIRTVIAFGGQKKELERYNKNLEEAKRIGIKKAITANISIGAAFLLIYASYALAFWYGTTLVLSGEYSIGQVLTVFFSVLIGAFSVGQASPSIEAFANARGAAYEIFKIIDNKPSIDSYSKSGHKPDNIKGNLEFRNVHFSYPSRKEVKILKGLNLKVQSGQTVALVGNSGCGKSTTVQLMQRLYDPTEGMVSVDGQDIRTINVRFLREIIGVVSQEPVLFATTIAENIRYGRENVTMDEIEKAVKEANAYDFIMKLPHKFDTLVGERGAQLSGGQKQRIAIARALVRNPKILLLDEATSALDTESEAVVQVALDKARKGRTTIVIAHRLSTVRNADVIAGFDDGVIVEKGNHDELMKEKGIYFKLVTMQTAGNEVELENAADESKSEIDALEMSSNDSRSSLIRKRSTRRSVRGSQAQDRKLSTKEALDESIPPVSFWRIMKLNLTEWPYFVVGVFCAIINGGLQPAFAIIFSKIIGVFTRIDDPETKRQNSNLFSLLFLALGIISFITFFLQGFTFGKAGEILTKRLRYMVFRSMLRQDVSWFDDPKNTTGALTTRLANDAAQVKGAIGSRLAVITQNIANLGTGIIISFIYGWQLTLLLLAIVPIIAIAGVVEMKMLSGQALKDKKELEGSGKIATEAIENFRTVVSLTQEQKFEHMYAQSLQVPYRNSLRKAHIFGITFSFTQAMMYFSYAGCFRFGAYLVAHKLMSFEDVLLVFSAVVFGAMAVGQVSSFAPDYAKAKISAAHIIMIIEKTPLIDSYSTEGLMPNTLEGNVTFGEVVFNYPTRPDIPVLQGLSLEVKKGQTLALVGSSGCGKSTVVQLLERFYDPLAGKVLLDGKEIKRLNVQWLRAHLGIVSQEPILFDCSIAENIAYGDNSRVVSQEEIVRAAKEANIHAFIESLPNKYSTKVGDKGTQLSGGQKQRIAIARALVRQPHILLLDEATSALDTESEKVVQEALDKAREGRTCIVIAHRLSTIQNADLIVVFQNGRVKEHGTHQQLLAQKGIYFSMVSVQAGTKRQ", "text": "Data points indicate the mean±S.D. values of at least four measurements, performed in two or three different membrane preparations. Control values show the activity measured in the absence of added compounds."}, "ABCG2 [2]": {"molecular_target": "T1, ABCG2", "experimental": "FIG. 5. Mitoxantrone uptake in intact Sf9 cells expressing ABCG2 variants.\nFlow-cytometry determination of MX fluorescence after 30 min incubation at 37° C.\nCells were washed once and suspended in HPMI. Aliquots of the suspension containing 3×10^5 cells were incubated with or without the addition of 5 μM MX, and also with 5 μM MX+10 μM FTC (a specific inhibitor of ABCG2). After an incubation for 30 minutes at 37° C. the cells were washed with ice-cold HPMI medium and than suspended in ice-cold HPMI containing 1.51 μl 10 mg/ml propidium-iodide and stored on ice until the flow cytometry measurements. […] Events were counted up to 15000 and dead cells were excluded based on propidium iodide staining."}, "ABCG2 [3]": {"molecular_target": "T1, ABCG2", "assay": "Hoechst dye uptake in intact Sf9 cells expressing ABCG2 (fluorescence spectrophotometry)", "assay_type": "cell-based", "set-up": "removing the full length human ABCG2 cDNA (G482 variant); expressed in transfected cells; host or cells: Sf9 insect cells infected with recombinant baculovirus", "experimental": "FIG. 6. Hoechst dye uptake followed by fluorescence spectrophotometry in Sf9 cells expressing ABCG2482G (Panel A) or ABCG2 K86M mutant (Panel B). Abscissa: time in seconds. Ordinate: relative fluorescence in arbitrary units.\nHoechst33342 uptake—Hoechst dye uptake (5 μM) was measured in a fluorescence spectrophotometer at 350 nm (excitation)/460 nm (emission), by using 3×10^5 cells in a HPMI solution. This dye becomes fluorescent only in a complex with DNA (Haugland, MP catalogue). The initial increase of fluorescence is due to a rapid dye uptake and nuclear staining in dead cells, while further cellular dye uptake is reflected by an increase in fluorescence. At the end of each experiment, for standardization, a full cellular staining is obtained by the addition of 8 μM digitonin, disrupting the integrity of the cell membrane."}, "[4]": {"details": "relative to the ATPase activity measured in the absence of compound"}}, "note": "Like-named read-outs stand apart in the source and are kept apart here.", "data": [{"molecule": "CC(=O)OCOC(=O)CN(CC(=O)OCOC(C)=O)Cc1cc2c(cc1OC(C)=O)Oc1cc(OC(C)=O)c(CN(CC(=O)OCOC(C)=O)CC(=O)OCOC(C)=O)cc1C21OC(=O)c2ccccc21", "note": "[Calcein-AM, calcein acetoxy-methylesther]", "values": [{"measurement": "Effect on ABCG2-ATPase activity", "setting": "ABCG2 [1]; result in words", "result": "no effect"}, {"measurement": "Kact, MDR1-ATPase", "setting": "human MDR1 protein", "result": "about 1 μM"}, {"measurement": "Stimulation of MDR1-ATPase", "setting": "human MDR1 protein", "result": 4.5, "unit": "fold"}]}, {"molecule": "[Na+].[Na+].[Na+].[O]=[V]([O-])([O-])[O-]", "note": "[Na-orthovanadate]", "values": [{"measurement": "Ki", "setting": "ABCG2 [1]", "result": "~20", "unit": "µM"}]}, {"molecule": "COc1cccc2c1C(=O)c1c(O)c3c(c(O)c1C2=O)C[C@@](O)(C(C)=O)C[C@@H]3O[C@H]1C[C@H](N)[C@H](O)[C@H](C)O1", "note": "[Daunorubicin]", "values": [{"measurement": "Emax", "setting": "ABCG2 [1]; human, pH 7", "result": 50, "unit": "%"}, {"measurement": "Kact", "setting": "ABCG2 [1]; human, pH 7", "result": "2,5 mM"}]}, {"molecule": "COc1ccc2c3c([nH]c2c1)[C@H](C=C(C)C)N1C(=O)[C@@H]2CCCN2C(=O)[C@@H]1C3", "note": "[Fumitremorgin C]", "values": [{"measurement": "Ki", "setting": "ABCG2 [1]", "result": 1.3, "unit": "µM"}, {"measurement": "Maximum inhibition (%)", "setting": "ABCG2 [1]; [4]", "result": 74, "unit": "%"}, {"measurement": "Effect on ABCG2-ATPase activity", "setting": "ABCG2 [1]; result in words", "result": "strongly inhibited"}, {"measurement": "Effect on active extrusion of fluorescent compounds by ABCG2 482 variants", "setting": "ABCG2 [2]; 482R, 482G, 482T variants, intact Sf9 cells", "result": "inhibited"}, {"measurement": "Effect on verapamil stimulated MDR1-ATPase activity", "setting": "human MDR1 protein; 33 μM verapamil", "result": "no significant effect"}, {"measurement": "Effect on MDR1-ATPase activity", "setting": "human MDR1 protein; basal, result in words", "result": "no significant effect"}]}, {"molecule": "COc1cccc2c1C(=O)c1c(O)c3c(c(O)c1C2=O)C[C@@](O)(C(=O)CO)C[C@@H]3O[C@H]1C[C@H](N)[C@H](O)[C@H](C)O1", "note": "[Doxorubicin]", "values": [{"measurement": "Emax", "setting": "ABCG2 [1]; human, pH 7", "result": 30, "unit": "%"}, {"measurement": "Kact", "setting": "ABCG2 [1]; human, pH 7", "result": 5, "unit": "mM"}]}, {"molecule": "CCOc1ccc(-c2nc3ccc(-c4nc5ccc(N6CCN(C)CC6)cc5[nH]4)cc3[nH]2)cc1", "note": "[Hoechst dye, Hoechst33342]", "values": [{"measurement": "Hoechst dye extrusion by ABCG2-expressing Sf9 cells", "setting": "ABCG2 [3]", "result": "actively extrude"}]}, {"molecule": "O=C1c2c(O)ccc(O)c2C(=O)c2c(NCCNCCO)ccc(NCCNCCO)c21", "note": "[Mitoxantrone]", "values": [{"measurement": "Effect on ABCG2-ATPase activity", "setting": "ABCG2 [1]; human, pH 7", "result": "stimulated the ABCG2-ATPase activity in a concentration dependent manner"}, {"measurement": "Emax", "setting": "ABCG2 [1]; human, pH 7", "result": 40, "unit": "%"}, {"measurement": "Kact", "setting": "ABCG2 [1]; human, pH 7", "result": 7, "unit": "mM"}, {"measurement": "Mitoxantrone extrusion by ABCG2-expressing Sf9 cells", "setting": "ABCG2 [2]; intact cells, flow cytometry", "result": "actively extrude"}, {"measurement": "Effect on MDR1-ATPase activity", "setting": "human MDR1 protein", "result": "no significant effect"}]}, {"molecule": "Rhodamine 123", "values": [{"measurement": "Kact", "setting": "ABCG2 [1]", "result": "4,5 mM"}, {"measurement": "Maximum stimulation (%)", "setting": "ABCG2 [1]; [4]", "result": 20, "unit": "%"}]}, {"molecule": "CCN1C(=O)C=CC1=O", "note": "[NEM, N-ethylmaleimide]", "values": [{"measurement": "Ki", "setting": "ABCG2 [1]", "result": 10, "unit": "µM"}]}, {"molecule": "Nc1ncnc2c1ncn2[C@@H]1O[C@H](COP(=O)(O)OP(=O)([O-])OP(=O)([O-])O)[C@@H](O)[C@H]1O.[Mg+2]", "note": "[MgATP]", "values": [{"measurement": "Km", "setting": "ABCG2 [1]", "result": "~300", "unit": "µM"}, {"measurement": "MgATP concentration producing half-maximum membrane ATPase activity", "setting": "ABCG2 [1]", "result": 0.3, "unit": "mM"}, {"measurement": "Km", "setting": "ABCG2 [1]; read-out: KM ATP, without an added substrate", "result": 600, "unit": "µM"}]}]}
